The subject of one data set is philtrum skin. The data set can be described thus: Cooling sensation after ointment applied to philtrum skin. Format: in vivo, human. As to conditions: for Duration of cooling, Philtrum Skin: 5 mg/ml in Aquaphor ointment on philtrum skin; for duration of cooling (FIG. 1): 40 to 70 mg of 1% wt/vol (10 mg/ml) ointment on skin above the upper lips. The text has this: A reliable place for topical application is the skin above the upper lip (above the vermilion border of the lips), on the philtrum, lateral to the philtrum until the nasolabial folds, and on the lower nostrils (subnasale). This part of the face is known to be densely innervated with cold receptors, second only to the surfaces of the eyeball and anogenitalia.
The intensity of the subjective skin sensation is rated as 0, 1, 2 or 3 with: 0 as no change; 1 as slight coolness, cold, or tingling; 2 as clear-cut signal of coolness, cold, or tingling; and 3 as robust cooling or cold. The intervals for recording sensations are 5 to 10 minutes, until two successive zeroes are obtained. The results (shown in FIG. 1) are averaged values of 4 to 6 separate trials in the same individual. The data are plotted using SigmaPlot® (Systat Software, Point Richmond Calif.) and a smoothing function with a negative exponential was used for analysis and statistical fit of the results. Confirmatory trials of cooling action of the long-acting NACE compounds were obtained in 2 to 4 individuals but not quantified for some because of the large number of chemicals that were evaluated
The onset of drug action is taken as the time to reach 2 units of coolness intensity, and offset of drug action is the time when coolness intensity drops below 2, after previously surpassing 2 units. The duration of cooling action is defined as the offset time minus the onset time. […] The quality of the sensation is noted, for example, as pure refreshing coolness, or if the sensation is accompanied by irritation (stinging or burning). The quality of the sensation is not rated for intensity.
For bioassay on the skin, approximately 30 mg was stirred and dissolved in 3 g of warm liquid Aquaphor® ointment to a yield 5 to 10 mg/ml (0.5% to 1.0 wt/vol) ointment. After cooling, 40 to 70 mg of the solid ointment was placed on the tip of a plastic stick and applied to the skin above the upper lip, on the philtrum, and lateral to the philtrum, up to the nasolabial folds, of test subjects and the onset and duration of cooling sensations noted.
The intensity of the subjective skin sensation was rated as 0, 1, 2 or 3 with: 0 as no change; 1 as slight coolness, cold, or tingling; 2 as clear signal of coolness, cold, or tingling; and 3 as robust cooling or cold. The intervals for recording sensations were 5 to 10 minutes, until two successive zeroes were obtained. The results (shown in FIG. 1) are averaged values of 4 to 6 separate trials in the same individual. The data are plotted using SigmaPlot® (Systat Software, Point Richmond, Calif., USA) and a smoothing function with a negative exponential was used for analysis and statistical fit of the results.
The onset of drug action was taken as the time to reach 2 units of coolness intensity, and offset of drug action was the time when coolness intensity drops below 2, after previously surpassing 2 units. The duration of cooling action was defined as the offset time minus the onset time. […] The quality of the sensation was also noted: such as pure refreshing coolness, or if the sensation was accompanied by irritation (stinging or burning). The quality of the sensation was not rated for intensity.
For the results in FIG. 1, the test compounds were singly applied to the skin above the upper lips at a 40 to 70 mg dose of a 1% wt/vol (10 mg/ml) ointment. Subsequently, for the results shown in Table 3, the test dose on the philtrum was reduced to a 0.5% wt/vol (5 mg/ml) ointment. The reason for choosing a lower dose was to increase the number of trials per individual and to have a reduced chance of substances accumulating in the skin.

The subject of a further data set is eyelids/ocular surface. The data set can be described thus: Cooling after wiping closed eyelids with a towelette. Format: in vivo, human. The note with it: eye wipes, 1 mg/ml in 5%-95% v/v ethanol-distilled water. The procedure:
A second method of testing was to take a towelette saturated with a test solution of the cooling agent and to wipe the towelette over the dosed eyelids. The presence or absence of cooling (or irritanty, if applicable) sensations was then recorded at 10 minute intervals until the cessation of coolness in two successive intervals.
(§1) For testing of cooling compounds delivered to the eyelids with a towelette, the following procedures were used in the experiments of Table 3 and in Study 5 and 6. Three ml of liquid suspension or solution in distilled water was added to a 0.4 g cotton rectangle (50 mm×60 mm) (CS-being, Daisan Cotton, Japan) and individually sealed with a vaccuum apparatus (Foodsaver®, Jarden Corp.). Samples were stored in the freezer or refrigerator and thawed to room temperature before use. Wiping with the cotton pad delivers 40 to 45 μl of liquid composition to the eyelids ([…] to 22 μl per eye). So, if the concentration of the test substance was 1 mg/ml, the dose delivered to both eyes is a total of ˜40 to […], or ˜20 μg per eye. This method allows a reliable delivery of test substances because the dissolved or suspended particles in solution are evenly dispersed on the cotton pad in an excess volume of liquid. The presence or absence of cooling sensations was noted as being present or absent at 5 to 10 min intervals until no coolness was noticeable in two successive test intervals. Only the duration of cooling on the ocular surface was recorded, without an attempt to quantify the intensity of the sensation.

A short description of data set [1]: Log P of tested compounds. Format: physicochemical.
The test system of a further data set is sleepiness and fatigue. The data set can be described thus: Study 4: eye wipes against sleepiness and fatigue. Format: in vivo, human. As to conditions: for onset and intensity of awakening effect: eye wipes, compared with the other analogs. The protocol: as §1
Three high-powered business executives who regularly spent long hours at the negotiating tables or at meetings felt “burnt out” by their professional activities and frequently felt tired and sleepy-eyed in the social arena. They volunteered to try eye wipes containing 1.0 mg/ml of (R)-2-[((1R,2S,5R)-2-isopropyl-5-methyl-cyclohexanecarbonyl)-amino]-propionic acid isopropyl ester (D-Ala-OiPr, No. 1, in table 1) to see if the eye wipes will refresh and awaken their interest during meetings. […] They became alert and vigilant and more pro-active in their social milieu.

The next data set has as its system face. The data set can be described thus: Study 2: towelette used to wipe the face in hot weather. Format: in vivo, human. The note with it: for duration of pleasant cooling sensations: 10% propylene glycol/90% water. The protocol:
2-Isopropyl-5-methyl-cyclohexanecarbonyl D-alanine methyl ester was dissolved in warm 10% propylene-glycoV90% distilled water solution to give a concentration of either 0.1 or 0.5% wt/vol (1 or 5 mg/mL). Six to seven milliliters of these solutions were then applied with a pipette onto a paper napkin (Luncheon Napkins, Kirkland Signature brand from Costco, Inc.) The napkin was 1-ply with a 30.4×29.5 cm dimension. Each napkin was then hermetically sealed in a plastic envelope (Foodsaver by Tilia). On two separate occasions involving golfing trips to Los Angeles, Calif., USA, where air temperatures exceeded […] (90° F.), these towelettes were used to wipe the face. Pleasant cooling sensations were obtained that lasted for about 10 minute for the 0.1% concentration towelette and about 60 minutes for the 0.5% towelette.

In the next data set the test system is periorbital skin. The data set can be described thus: Ointment applied to periorbital skin: coolness, eye irritancy, alerting (Study 3). The class given is in vivo, human. The text has this:
The ointment was also applied to the periorbital skin (upper and lower eyelids and on skin adjacent to the lateral canthus) for tests of irritancy near the eyes, and the subject is asked if irritation is present or absent. The intensity of the eye sensation is not rated.
For tests of irritancy near the eyes in Study 3 and 4, the ointment was applied to the periorbital skin (upper and lower eyelids and on skin adjacent to the lateral canthus), and the subject asked if irritation is present or absent. The intensity of the eye sensation is not rated, but just noted as being present or absent
A 1% preparation of 2-isopropyl-5-methyl-cyclohexanecarbonyl D-alanine methyl ester in Aquaphor® ointment was applied bilaterally to the periorbital area of four individuals. […] This experiment was then repeated three days later in the evening with the same individuals whose occupations required daylong activities before a computer screen.

For a further data set, the system named is allergic conjunctivitis. The data set can be described thus: Study 5: eye wipes in allergic conjunctivitis. The class given is in vivo, human. The protocol: as §1
A laboratory scientist suffered from seasonal allergic conjunctivitis. This condition was severely aggravated when […] started doing experiments with laboratory animals (rats and mice) and […] became sensitized to the associated allergens. The conjunctivitis was not relieved by oral or topical eye drop antihistamines and the subject was reluctant to consider the use of anti-inflammatory steroid ointments. Upon examination, their eyes were blood-shot and watery and they kept rubbing their eyelids with their fingers even though they knew this action may further aggravate the itch and discomfort. They volunteered to try eye wipes containing 1.0 mg/ml of (R)-2-[((1 R,2S,5R)-2-isopropyl-5-methyl-cyclohexanecarbonyl)-amino]-acetic isopropyl ester (Gly-OiPr, No. 2, in table 1). The relief of itch and discomfort was obtained within 5 minutes and lasted for at least four hours.

The next data set relates to periorbital pain. The data set is described as follows: Study 6: eye wipes in persistent periorbital pain. The class given is in vivo, human. The note with it: eye wipes 1.0 mg/ml, one patient, three occasions. The procedure: as §1
A person suffered from “dry eyes” or keratoconjunctivitis sicca which was managed by artificial tears and eye drops containing lubricants. […]

Data set [2] concerns dorsal surface of the tongue. The note with it: threshold amount producing cooling on tongue of human volunteers; values from Watson US 04178459; cited from earlier work.
Where [3] appears, read: 1% in Aquaphor ointment, periorbital area, four individuals.
Where [4] appears, read: eye wipes 1.0 mg/ml, one subject.

The text below walks through data of patent US20110082204A1, “N-alkylcarbonyl-amino acid ester and N-alkylcarbonyl-amino lactone compounds and their use” (priority 2006, published 2011).

One may read the logP as a log measure of how a compound divides between an organic and an aqueous phase. Lower therefore signals a more hydrophilic compound. For the molecule `CCOC(=O)[C@@H](C)NC(=O)[C@@H]1C[C@H](C)CC[C@H]1C(C)C` [D-Ala Et Ester, (R)-2-[((1R,2S,5R)-2-isopropyl-5-methyl-cyclohexanecarbonyl)-amino]-propionic acid ethyl ester], in the data set on philtrum skin, the “Duration of cooling, Philtrum Skin” value came to 103 min and the “duration of cooling (FIG. 1)” value came to 2.4 h. In the data set on eyelids/ocular surface, the “Duration of cooling, Eyelids/Ocular Surface” value was found to be 180 min. The logP in data set [1] came to 3.1. Moreover, in the data set on sleepiness and fatigue, the “onset and intensity of awakening effect” value was “faster onset and more intense awakening effect”.

Take `COC(=O)[C@@H](C)NC(=O)[C@@H]1C[C@H](C)CC[C@H]1C(C)C` [D-Ala Me Ester, (R)-2-[((1R,2S,5R)-2-isopropyl-5-methyl-cyclohexanecarbonyl)-amino]-propionic acid methyl ester]: in the data set on philtrum skin, the “Duration of cooling, Philtrum Skin” value is 77 min and the “duration of cooling (FIG. 1)” value was determined as 1.9 h. Further, the “Duration of cooling, Eyelids/Ocular Surface” value in the data set with eyelids/ocular surface turned out to be 120 min. Besides, in data set [1], the logP worked out at 2.8. The “duration of pleasant cooling sensations” value in the data set on face (0.1% wt/vol (1 mg/mL) towelette) was “about 10 minute”. In the data set on face (0.1 or 0.5% towelette), the eye irritation result was “No eye irritation was observed”. In addition, in the data set with face (0.5% wt/vol (5 mg/mL) towelette), the “duration of pleasant cooling sensations” value was “about 60 minutes”. For the same molecule, in the data set with periorbital skin (setting [3]), the “Onset of coolness on the skin” value was determined as 1 min, the “duration of alerting effect” value was “about one” and the “duration of coolness on the skin (average)” value is 30 min. Further, the “irritation of skin / eye surfaces” value in the data set on periorbital skin (ointment on periorbital area) is “No irritation of the eye surfaces was noted”. Moreover, the “onset and intensity of awakening effect” value in the data set with sleepiness and fatigue was “faster onset and more intense awakening effect”.

Regarding `CC(C)OC(=O)[C@@H](C)NC(=O)[C@@H]1C[C@H](C)CC[C@H]1C(C)C` [D-Ala iPr Ester, (R)-2-[((1R,2S,5R)-2-isopropyl-5-methyl-cyclohexanecarbonyl)-amino]-propionic acid isopropyl ester], the “Duration of cooling, Philtrum Skin” value in the data set with philtrum skin came to 34 min. Also, the “Duration of cooling, Eyelids/Ocular Surface” value in the data set on eyelids/ocular surface amounted to 360 min. In addition, in [1], the logP is 3.7. The “effect on sleepiness and fatigue” value in the data set on sleepiness and fatigue (eye wipes 1.0 mg/ml, three executives) is “the sense of sleepiness and fatigue was reduced for the next several hours”.

For `CC(C)OC(=O)CNC(=O)[C@@H]1C[C@H](C)CC[C@H]1C(C)C` [Gly iPr Ester, (R)-2-[((1R,2S,5R)-2-isopropyl-5-methyl-cyclohexanecarbonyl)-amino]-acetic acid isopropyl ester], the “Duration of cooling, Philtrum Skin” value with philtrum skin was determined as 27 min. Besides, the “Duration of cooling, Eyelids/Ocular Surface” value with eyelids/ocular surface amounted to 300 min. Also, the logP in data set [1] came out at 3.3. Moreover, in the data set with allergic conjunctivitis (setting [4]), the “duration of relief of itch and discomfort” value is recorded as “at least four”; the “time to relief of itch and discomfort” value is not above 5 min. Also, in the data set with allergic conjunctivitis (wipes used as needed for three days), the “over-all itchiness and redness” value was “over-all itchiness and redness were reduced significantly”. The “relief of periorbital pain” value in the data set on periorbital pain is recorded as “immediate relief”.

By Log P is commonly meant a log measure of how a compound divides between an organic and an aqueous phase. For the molecule `CCNC(=O)C1CC(C)CCC1C(C)C` (stereo not shown) [WS-3, reference compound], the “duration of cooling (FIG. 1)” value in the data set with philtrum skin was found to be 0.3 h. Besides, in the data set with philtrum skin (Study 1), the “duration of action / onset on philtrum skin” value was “short duration of action (less than 1 hour) on the philtrum skin or slow onset (more than 5 minutes)”. Also, the “Log P” value in [1] worked out at 3.7. Besides, the “irritation of skin / eye surfaces” value in the data set on periorbital skin (ointment on periorbital area) is “produced significant skin and eye irritation”. Further, the “skin coolness and refreshment” value with periorbital skin (ointment on periorbital area, conditions similar to Study 3) is “did not enhance skin coolness or provide satisfactory refreshment”. Besides, in data set [2], the “Threshold tongue” value is 0.2 µg.
